Activity calls are given as the source filed them. No cut-off for these calls is given here.
Assays:
Cannabinoid receptor 2 [1] = target: T1, Cannabinoid receptor 2 (Homo sapiens, UniProt P34972); test: Agonist activity at CB2R in human U266 cells assessed as reduction in MIF gene expression at 50 uM pretreated for 30 mins with AM630 and incubated for 2 hrs by qRT-PCR analysis; assay type: cell-based
Cannabinoid receptor 2 [2] = target: T1, Cannabinoid receptor 2; test: Agonist activity at CB2R in human U266 cells assessed as reduction in STAT3 gene expression at 50 uM pretreated for 30 mins with AM630 incubated for 2 hrs by qRT-PCR analysis; assay type: cell-based
Acetylcholinesterase [3] = target: T2, Acetylcholinesterase (Homo sapiens, UniProt P22303); test: Inhibition of recombinant human AChE at 10 uM using acetylthiocholine iodide as substrate preincubated for 20 mins followed by substrate addition and measured for 3 mins by spectrophotometry based Ellman's method relative to control
T2 sequence (P22303 whole entry): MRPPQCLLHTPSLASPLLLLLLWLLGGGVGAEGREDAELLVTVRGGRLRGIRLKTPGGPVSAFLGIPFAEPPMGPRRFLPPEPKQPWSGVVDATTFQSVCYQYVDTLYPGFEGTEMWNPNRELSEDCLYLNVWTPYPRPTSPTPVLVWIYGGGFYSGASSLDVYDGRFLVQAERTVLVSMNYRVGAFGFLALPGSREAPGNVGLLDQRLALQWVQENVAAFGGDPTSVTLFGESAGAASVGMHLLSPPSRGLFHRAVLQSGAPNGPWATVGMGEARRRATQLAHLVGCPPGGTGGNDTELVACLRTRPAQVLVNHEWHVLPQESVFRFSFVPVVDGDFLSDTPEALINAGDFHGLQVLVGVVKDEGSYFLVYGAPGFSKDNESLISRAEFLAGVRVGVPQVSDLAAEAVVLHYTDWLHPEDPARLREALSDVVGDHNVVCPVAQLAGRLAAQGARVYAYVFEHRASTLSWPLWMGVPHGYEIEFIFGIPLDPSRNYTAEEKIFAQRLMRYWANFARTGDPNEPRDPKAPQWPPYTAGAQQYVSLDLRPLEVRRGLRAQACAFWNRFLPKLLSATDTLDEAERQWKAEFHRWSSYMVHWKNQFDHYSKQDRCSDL

[4] = target: Cholinesterase (Homo sapiens) (UniProt P06276); test: Inhibition of human BChE at 10 uM using butyrylthiocholine iodide as substrate preincubated for 20 mins followed by substrate addition and measured for 3 mins by spectrophotometry based Ellman's method relative to control
Sequence of Cholinesterase (Homo sapiens) (P06276 whole entry): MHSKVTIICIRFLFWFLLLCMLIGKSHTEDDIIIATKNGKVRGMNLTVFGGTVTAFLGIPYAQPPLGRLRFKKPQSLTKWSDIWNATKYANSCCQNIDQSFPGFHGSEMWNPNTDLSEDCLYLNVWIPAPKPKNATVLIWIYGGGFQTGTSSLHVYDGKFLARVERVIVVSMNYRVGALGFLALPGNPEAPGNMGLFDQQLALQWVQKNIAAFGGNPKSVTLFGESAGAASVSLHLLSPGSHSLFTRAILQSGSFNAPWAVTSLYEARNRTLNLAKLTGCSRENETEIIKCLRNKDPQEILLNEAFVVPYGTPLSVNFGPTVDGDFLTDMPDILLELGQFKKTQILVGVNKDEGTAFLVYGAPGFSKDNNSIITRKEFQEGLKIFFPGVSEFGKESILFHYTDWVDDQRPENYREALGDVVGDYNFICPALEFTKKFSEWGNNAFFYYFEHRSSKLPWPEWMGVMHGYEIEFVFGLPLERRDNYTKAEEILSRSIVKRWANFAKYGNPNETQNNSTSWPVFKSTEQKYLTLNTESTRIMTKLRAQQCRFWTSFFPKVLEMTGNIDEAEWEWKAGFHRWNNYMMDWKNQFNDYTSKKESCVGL

[5] = target: Cannabinoid receptor 1 (Homo sapiens) (UniProt P21554); test: Binding affinity at human CB1R expressed in CHO cells at 10 uM incubated for 3 hrs by microbeta scintillation counting relative to control; assay type: cell-based
Sequence of Cannabinoid receptor 1 (Homo sapiens) (P21554 whole entry): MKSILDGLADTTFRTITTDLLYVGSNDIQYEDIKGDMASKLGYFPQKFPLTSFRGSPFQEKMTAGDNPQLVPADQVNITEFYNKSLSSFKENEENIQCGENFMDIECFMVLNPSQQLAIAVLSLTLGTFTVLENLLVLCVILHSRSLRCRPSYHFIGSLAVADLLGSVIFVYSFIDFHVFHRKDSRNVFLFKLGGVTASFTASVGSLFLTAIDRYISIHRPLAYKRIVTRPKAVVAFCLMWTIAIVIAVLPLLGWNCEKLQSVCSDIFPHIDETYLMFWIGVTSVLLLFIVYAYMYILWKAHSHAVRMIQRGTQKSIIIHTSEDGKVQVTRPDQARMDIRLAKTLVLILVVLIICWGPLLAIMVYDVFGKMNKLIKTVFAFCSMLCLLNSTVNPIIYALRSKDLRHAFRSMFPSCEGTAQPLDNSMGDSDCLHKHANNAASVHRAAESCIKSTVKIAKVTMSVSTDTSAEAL

Cannabinoid receptor 2 [6] = target: T1, Cannabinoid receptor 2; test: Agonist activity at CB2R in human U266 cells assessed as reduction in STAT3 gene expression at 50 uM incubated for 2 hrs by qRT-PCR analysis; assay type: cell-based
Cannabinoid receptor 2 [7] = target: T1, Cannabinoid receptor 2; test: Agonist activity at CB2R in human U266 cells assessed as reduction in MIF gene expression at 50 uM incubated for 2 hrs by qRT-PCR analysis; assay type: cell-based
Cannabinoid receptor 2 [8] = target: T1, Cannabinoid receptor 2; test: biochemical
Acetylcholinesterase [9] = target: T2, Acetylcholinesterase
Description: Inhibition of recombinant human AChE assessed as inhibition constant for enzyme-inhibitor complex using acetylthiocholine iodide as substrate preincubated for 20 mins followed by substrate addition and measured for 3 mins by spectrophotometry based Lineweaver-Burk plot analysis

Acetylcholinesterase [10] = target: T2, Acetylcholinesterase; remark: listed apart in the source
Description: Inhibition of recombinant human AChE assessed as inhibition constant for enzyme-substrate-inhbitor complex using acetylthiocholine iodide as substrate preincubated for 20 mins followed by substrate addition and measured for 3 mins by spectrophotometry based Lineweaver-Burk plot analysis

[11] = target: Cannabinoid receptor 1 (Homo sapiens) (UniProt P21554); test: Agonist activity at human CB1R expressed in CHO-K1 cells assessed as increase in intracellular calcium mobilization by calcein4-AM dye based fluorescence assay; assay type: functional, cell-based
Cannabinoid receptor 2 [12] = target: T1, Cannabinoid receptor 2; test: Agonist activity at human CB2R expressed in CHO-K1 cells assessed as increase in intracellular calcium mobilization by calcein4-AM dye based fluorescence assay relative to control; assay type: functional, cell-based
Cannabinoid receptor 2 [13] = target: T1, Cannabinoid receptor 2

T1 sequence (P34972 whole entry): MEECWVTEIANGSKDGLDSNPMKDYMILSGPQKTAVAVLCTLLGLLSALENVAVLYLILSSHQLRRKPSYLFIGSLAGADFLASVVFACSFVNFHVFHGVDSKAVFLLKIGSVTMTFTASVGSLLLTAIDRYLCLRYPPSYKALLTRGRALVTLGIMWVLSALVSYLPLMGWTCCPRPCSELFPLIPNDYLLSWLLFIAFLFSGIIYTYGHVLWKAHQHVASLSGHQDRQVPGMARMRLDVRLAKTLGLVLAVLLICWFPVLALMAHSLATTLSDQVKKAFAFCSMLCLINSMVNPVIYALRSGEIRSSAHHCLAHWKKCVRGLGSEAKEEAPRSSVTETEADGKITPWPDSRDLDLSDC

SMILES	Activity (Cannabinoid receptor 2 [1])	Activity (Cannabinoid receptor 2 [2])	inhibition (Acetylcholinesterase [3])	inhibition [4]	Activity [5]	Activity (Cannabinoid receptor 2 [6])	Activity (Cannabinoid receptor 2 [7])	Ki (Cannabinoid receptor 2 [8])	Ki (Acetylcholinesterase [9])	Ki (Acetylcholinesterase [10])	Activity [11]	Emax (Cannabinoid receptor 2 [12])	EC50 (Cannabinoid receptor 2 [13])
CCOc1ccc(Cc2nc3cc(C(=O)N(CC)CC)ccc3n2CCC(C)C)cc1	Active	Active	< 10%	< 10%	24%	Active	Active						
CCOc1ccc(Cc2nc3cc(C(=O)N(CC)CC)ccc3n2CCCNc2c3c(nc4ccccc24)CCCC3)cc1								30.7 µM					
CCOc1ccc(Cc2nc3cc(C(=O)NCCOCCOCCNc4c5c(nc6ccccc46)CCCC5)ccc3n2CCC(C)C)cc1	Active	Active				Active	Active						
CCOc1ccc(Cc2nc3cc(C(=O)N(CC)CC)ccc3n2CCCCCCNc2c3c(nc4ccccc24)CCCC3)cc1	Active	Active				Active	Active		88.5 nM	206 nM	inactive	51%	
CCOc1ccc(Cc2nc3cc(C(=O)NCCSSCCNc4c5c(nc6ccccc46)CCCC5)ccc3n2CCC(C)C)cc1									16.7 nM	27.9 nM			
CCOc1ccc(Cc2nc3cc(C(=O)NCCCCNc4c5c(nc6ccccc46)CCCC5)ccc3n2CCC(C)C)cc1	Active	Active				Active	Active				inactive	39%	911 nM

— ChEMBL document CHEMBL4354814 (J Med Chem, 2019)
